The text below walks through data of PubChem BioAssay AID248 (DTP/NCI, 2004).

Where “and” joins values, the source holds several entries; their conditions need not be identical. Identical values can stand only once. Toxic doses and inconclusive results are not listed.

The assay concerns L1210 leukemia ip in BDF1 mice, survival T/C. Briefly: NCI In Vivo Anticancer Drug Screen. Data for tumor model L1210 Leukemia (intraperitoneal) in B6D2F1 (BDF1) mice. To be noted: endpoint: mean survival time, higher = longer survival. In outline: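 Read-out is survival time, reported as the treated-group measurement over the vehicle-control measurement.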
Where [1] appears, read: dose: 100.0 mg/kg/injection, schedule: Q04DX003 (ip), vehicle: Klucel (hydroxypropylcellulose) (HPC).
Setting [2] is: dose: 200.0 mg/kg/injection, schedule: Q04DX003 (ip), vehicle: Klucel (hydroxypropylcellulose) (HPC).
Setting [3] is: dose: 400.0 mg/kg/injection, schedule: Q04DX003 (ip), vehicle: Klucel (hydroxypropylcellulose) (HPC).
Setting [4] is: dose: 75.0 mg/kg/injection, schedule: Q01DX001 (ip), vehicle: saline.
The mark [5] stands for this setting: dose: 150.0 mg/kg/injection, schedule: Q01DX001 (ip), vehicle: saline.

Regarding `N#Cc1ccc(NC(=O)N(CCCl)N=O)cc1`, the T/C is 150 % of control (dose: 1.0 mg/kg/injection, schedule: Q01DX009 (ip), vehicle: saline); 161 % of control (dose: 1.56 mg/kg/injection, schedule: Q01DX009 (ip), vehicle: saline); 160 % of control (dose: 6.25 mg/kg/injection, schedule: Q01DX Z (ip), vehicle: carboxymethylcellulose (CMC)); 118 % of control (dose: 12.5 mg/kg/injection, schedule: Q01DX Z (ip), vehicle: carboxymethylcellulose (CMC)); 104 % of control (dose: 25.0 mg/kg/injection, schedule: Q01DX Z (ip), vehicle: carboxymethylcellulose (CMC)); 152 % of control (dose: 37.5 mg/kg/injection, schedule: Q01DX001 (ip), vehicle: carboxymethylcellulose (CMC)). The T/C runs as follows: (dose: 75.0 mg/kg/injection, schedule: Q01DX001 (ip), vehicle: carboxymethylcellulose (CMC)) 153 % of control; (dose: 150.0 mg/kg/injection, schedule: Q01DX001 (ip), vehicle: carboxymethylcellulose (CMC)) 177 % of control.

Consider `C(=Nc1cnc2sccc2c1)c1ccccc1`, for which the T/C under setting [1] is 100 % of control, the T/C under setting [2] is 100 % of control and the T/C under setting [3] is 94 % of control.

Turning to `NC(N)=N/N=C/c1cc([N+](=O)[O-])ccc1OCC(=O)O`, the T/C was 98 % of control (dose: 60.0 mg/kg/injection, schedule: Q01DX Z (oral), vehicle: methylcellulose (MC)); 98 % of control (dose: 120.0 mg/kg/injection, schedule: Q01DX Z (oral), vehicle: methylcellulose (MC)); 95 % of control (dose: 240.0 mg/kg/injection, schedule: Q01DX Z (ip), vehicle: methylcellulose (MC)); 115 % of control (dose: 240.0 mg/kg/injection, schedule: Q01DX Z (oral), vehicle: methylcellulose (MC)); 93 % of control (dose: 360.0 mg/kg/injection, schedule: Q01DX Z (ip), vehicle: methylcellulose (MC)); 100 % of control (dose: 480.0 mg/kg/injection, schedule: Q01DX Z (ip), vehicle: methylcellulose (MC)). Moreover, the T/C (dose: 480.0 mg/kg/injection, schedule: Q01DX Z (oral), vehicle: methylcellulose (MC)) was 102 % of control.

For `COC(=O)NC(CI)c1ccccc1` (stereo not given), the T/C was 110 % of control under setting [4]; 110 % of control under setting [5]; 100 % of control (dose: 300.0 mg/kg/injection, schedule: Q01DX001 (ip), vehicle: saline).

Regarding `O=C(O)c1ccc(C(=O)Nc2cccc3ccccc23)c(C(=O)O)c1`, the T/C by setting is: (dose: 100.0 mg/kg/injection, schedule: Q04DX002 (ip), vehicle: Klucel (hydroxypropylcellulose) (HPC)) 106 % of control; (dose: 200.0 mg/kg/injection, schedule: Q04DX002 (ip), vehicle: Klucel (hydroxypropylcellulose) (HPC)) 103 % of control; (dose: 400.0 mg/kg/injection, schedule: Q04DX002 (ip), vehicle: Klucel (hydroxypropylcellulose) (HPC)) 103 % of control.

For the compound `O=[N+]([O-])c1c[c]([Hg][Cl])c(O)[c]([Hg][Cl])c1`, the T/C (dose: 3.13 mg/kg/injection, schedule: Q01DX009 (ip), vehicle: saline with Tween-80) was 88 % of control; the T/C (dose: 3.13 mg/kg/injection, schedule: Q04DX002 (ip), vehicle: saline with Tween-80) was 107 % of control; the T/C (dose: 3.13 mg/kg/injection, schedule: Q04DX003 (ip), vehicle: saline with Tween-80) is 88 % of control; the T/C (dose: 6.25 mg/kg/injection, schedule: Q01DX009 (ip), vehicle: saline with Tween-80) is 86 % of control; the T/C (dose: 6.25 mg/kg/injection, schedule: Q04DX002 (ip), vehicle: saline with Tween-80) was 96 % of control; the T/C (dose: 6.25 mg/kg/injection, schedule: Q04DX003 (ip), vehicle: saline with Tween-80) was 97 % of control. For the same compound, the T/C by setting is: (dose: 12.5 mg/kg/injection, schedule: Q01DX009 (ip), vehicle: saline with Tween-80) 91 % of control; (dose: 12.5 mg/kg/injection, schedule: Q04DX002 (ip), vehicle: saline with Tween-80) 93 % of control; (dose: 12.5 mg/kg/injection, schedule: Q04DX003 (ip), vehicle: saline with Tween-80) 87 % of control.

Regarding `O=C(CBr)c1ccc2c3c(cccc13)C=C2`, the T/C under setting [4] is 98 % of control.

Turning to `CCCCC1(C(C)C)C(=O)NC(=O)N(C)C1=O` (stereo not given), the T/C was 100 % of control under setting [4] and 105 % of control under setting [5].

For the compound `CC(=O)N1CCOCC1`, the T/C is, setting by setting: (dose: 100.0 mg/kg/injection, schedule: Q04DX003 (ip), vehicle: saline) 93 % of control; (dose: 200.0 mg/kg/injection, schedule: Q04DX003 (ip), vehicle: saline) 98 % of control; (dose: 400.0 mg/kg/injection, schedule: Q04DX003 (ip), vehicle: saline) 102 % of control.

Turning to `CCCCNC(=O)Nc1ccc(C(=O)O)c(O)c1`, the T/C by setting is: under setting [1], 100 % of control; under setting [2], 94 % of control; under setting [3], 93 % of control.

Take `CCOC(=O)c1c(/N=C/c2ccc3c(c2)OCO3)sc2c1CCCC2`: the T/C reads like this: (dose: 100.0 mg/kg/injection, schedule: Q04DX002 (ip), vehicle: saline with Tween-80) 98 % of control; (dose: 200.0 mg/kg/injection, schedule: Q04DX002 (ip), vehicle: saline with Tween-80) 95 % of control; (dose: 400.0 mg/kg/injection, schedule: Q04DX002 (ip), vehicle: saline with Tween-80) 95 % of control.

Consider `Cc1nc2ccc(N=Cc3ccc(N(CCCl)CCCl)cc3)cc2[nH]1`, for which the T/C under setting [1] was 102 % of control, the T/C under setting [2] is 98 % of control and the T/C under setting [3] was 104 % of control.

For `Clc1ccc(C(c2ccc(Cl)cc2)C(Cl)(Cl)Cl)cc1`, the T/C (dose: 12.0 mg/kg/injection, schedule: Q01DX009 (ip), vehicle: saline) was 95 % of control; the T/C (dose: 12.5 mg/kg/injection, schedule: Q01DX009 (ip), vehicle: acetone) was 97 % of control; the T/C (dose: 25.0 mg/kg/injection, schedule: Q01DX009 (ip), vehicle: Klucel (hydroxypropylcellulose) (HPC)) is 90 % of control; the T/C (dose: 25.0 mg/kg/injection, schedule: Q01DX009 (ip), vehicle: acetone) was 93 % of control; the T/C (dose: 25.0 mg/kg/injection, schedule: Q01DX009 (ip), vehicle: saline) is 92 % of control; the T/C (dose: 50.0 mg/kg/injection, schedule: Q01DX009 (ip), vehicle: Klucel (hydroxypropylcellulose) (HPC)) is 92 % of control. Besides, the T/C (dose: 50.0 mg/kg/injection, schedule: Q01DX009 (ip), vehicle: acetone) is 100 % of control and 86 % of control; the T/C (dose: 100.0 mg/kg/injection, schedule: Q01DX001 (ip), vehicle: acetone) was 93 % of control; the T/C (dose: 100.0 mg/kg/injection, schedule: Q01DX009 (ip), vehicle: acetone) is 94 % of control; the T/C (dose: 200.0 mg/kg/injection, schedule: Q01DX001 (ip), vehicle: acetone) was 87 % of control; the T/C (dose: 200.0 mg/kg/injection, schedule: Q01DX001 (ip), vehicle: saline) is 90 % of control; the T/C (dose: 200.0 mg/kg/injection, schedule: Q01DX009 (ip), vehicle: acetone) was 97 % of control. Moreover, the T/C reads like this: (dose: 400.0 mg/kg/injection, schedule: Q01DX001 (ip), vehicle: acetone) 92 % of control; (dose: 800.0 mg/kg/injection, schedule: Q01DX001 (ip), vehicle: acetone) 88 % of control; (dose: 800.0 mg/kg/injection, schedule: Q01DX001 (ip), vehicle: saline) 87 % of control.

Consider `CCOC(=O)C(=O)Cc1ccccc1[N+](=O)[O-]`, for which the T/C reads like this: (dose: 100.0 mg/kg/injection, schedule: Q01DX001 (ip), vehicle: Klucel (hydroxypropylcellulose) (HPC)) 96 % of control; (dose: 200.0 mg/kg/injection, schedule: Q01DX001 (ip), vehicle: Klucel (hydroxypropylcellulose) (HPC)) 102 % of control; (dose: 400.0 mg/kg/injection, schedule: Q01DX001 (ip), vehicle: Klucel (hydroxypropylcellulose) (HPC)) 95 % of control.

Turning to `Cc1cc(C)c(NS(=O)(=O)c2ccc([N+](=O)[O-])cc2)c(C)c1`, the T/C reads like this: (dose: 100.0 mg/kg/injection, schedule: Q04DX003 (ip), vehicle: saline with Tween-80) 89 % of control; (dose: 200.0 mg/kg/injection, schedule: Q04DX003 (ip), vehicle: saline with Tween-80) 93 % of control; (dose: 400.0 mg/kg/injection, schedule: Q04DX003 (ip), vehicle: saline with Tween-80) 86 % of control.

On to `CCNC(=O)Nc1ccc(C)cc1`, for which the T/C (dose: 100.0 mg/kg/injection, schedule: Q01DX001 (ip), vehicle: carboxymethylcellulose (CMC)) is 105 % of control; the T/C (dose: 200.0 mg/kg/injection, schedule: Q01DX001 (ip), vehicle: carboxymethylcellulose (CMC)) was 97 % of control; the T/C (dose: 400.0 mg/kg/injection, schedule: Q01DX001 (ip), vehicle: carboxymethylcellulose (CMC)) is 103 % of control.

Take `Nc1ccc2nc(NCCCO)c3ccccc3c2c1`: the T/C by setting is: under setting [1], 107 % of control; under setting [2], 113 % of control; under setting [3], 102 % of control.
